Assay results: the supplement of paper PMC10307832

Key:
Tosedostat + Vorinostat = compound: CC(C)C[C@@H](C(=O)N[C@H](C(=O)OC1CCCC1)c1ccccc1)[C@H](O)C(=O)NO [Tosedostat] + O=C(CCCCCCC(=O)Nc1ccccc1)NO [Vorinostat] (partner 1 µM); test: relative viability (nuclei count vs DMSO), 5 days (fraction); higher = more cells survive
How it was run: (§1)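 Relative viability divides the nuclei count in treated wells by that in vehicle wells. Lung cancer cell lines were seeded in 1536-well plates, dosed by pin tool the next day, and fixed and stained after 5 days in one step with final 0.05% Triton X-100, 1% formaldehyde and 1 ug/ml Hoechst. Dosing was a single drug or a fixed anchor-drug dose plus five library-drug doses (not always all listed) in √10 steps, and values are medians of duplicate plates imaged at 4×.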

Tosedostat + AZD7762 = compound: CC(C)C[C@@H](C(=O)N[C@H](C(=O)OC1CCCC1)c1ccccc1)[C@H](O)C(=O)NO [Tosedostat] + NC(=O)Nc1cc(-c2cccc(F)c2)sc1C(=O)N[C@H]1CCCNC1 [AZD7762] (partner 0.2 µM); test: as above
How it was run: as §1

Cell Line | relative viability (Tosedostat + Vorinostat; first compound 0.02 µM) | relative viability (Tosedostat + Vorinostat; first compound 0.06325 µM) | relative viability (Tosedostat + Vorinostat; first compound 0.2 µM) | relative viability (Tosedostat + Vorinostat; first compound 0.6325 µM) | relative viability (Tosedostat + Vorinostat; first compound 2 µM) | relative viability (Tosedostat + AZD7762; first compound 0.02 µM) | relative viability (Tosedostat + AZD7762; first compound 0.06325 µM) | relative viability (Tosedostat + AZD7762; first compound 0.2 µM) | relative viability (Tosedostat + AZD7762; first compound 0.6325 µM) | relative viability (Tosedostat + AZD7762; first compound 2 µM)
NCI-H647 | 0.842 | 0.502 | 0.566 | 0.503 | 0.686 | 0.664 | 0.454 | 0.368 | 0.366 | 0.398
NCI-H650 | 0.752 | 0.528 | 0.416 | 0.334 | 0.308 | 1.32 | 1.05 | 0.904 | 0.851 | 0.725
NCI-H661 | 0.837 | 0.826 | 0.796 | 0.775 | 0.814 |  |  |  |  | 
NCI-H727 | 1.18 | 1.26 | 1.1 | 0.886 | 0.683 | 0.667 | 0.559 | 0.65 | 0.669 | 0.53
NCI-H838 | 0.772 | 0.732 | 0.808 | 0.833 | 0.87 | 0.999 | 0.928 | 0.893 | 0.973 | 1
NCI-H1355 | 0.654 | 0.631 | 0.705 | 0.543 | 0.604 | 0.698 | 0.703 | 0.72 | 0.606 | 0.621
NCI-H1395 | 0.773 | 0.77 | 0.743 | 0.742 | 0.595 | 0.429 | 0.42 | 0.414 | 0.398 | 0.38
NCI-H1437 | 1.04 | 0.754 | 0.976 | 1.12 | 0.958 | 1.14 | 1.15 | 1.14 | 1.08 | 0.904
NCI-H1648 | 0.316 | 0.661 | 0.553 | 0.365 | 0.354 | 0.678 | 0.735 | 0.768 | 0.538 | 0.509
NCI-H1650 | 0.51 | 0.641 | 0.735 | 0.841 | 0.704 |  |  |  |  | 
NCI-H1651 | 0.564 | 0.609 | 0.548 | 0.556 | 0.472 | 0.458 | 0.486 | 0.588 | 0.439 | 0.384
NCI-H1666 | 1.06 | 1.16 | 1.06 | 1.04 | 1.05 | 0.878 | 0.919 | 1.02 | 0.912 | 0.907
NCI-H1703 |  |  |  |  |  | 0.122 | 0.133 | 0.138 | 0.122 | 0.0985
NCI-H1734 | 0.949 | 0.757 | 0.886 | 0.612 | 0.514 | 0.614 | 0.535 | 0.504 | 0.411 | 0.466
NCI-H1755 | 0.912 | 0.795 | 0.732 | 0.768 | 0.637 | 0.43 | 0.462 | 0.398 | 0.407 | 0.347
NCI-H1792 |  |  |  |  |  | 0.523 | 0.77 | 0.606 | 0.644 | 0.586
NCI-H1793 | 0.683 | 0.72 | 0.714 | 0.665 | 0.684 | 0.458 | 0.584 | 0.546 | 0.231 | 0.338
NCI-H1915 | 0.51 | 0.457 | 0.516 | 0.503 | 0.527 | 0.685 | 0.681 | 0.785 | 0.612 | 0.54
NCI-H1944 | 0.632 | 0.505 | 0.653 | 0.523 | 0.556 | 0.659 | 0.494 | 0.501 | 0.437 | 0.453

Cell Line | relative viability (Tosedostat + Vorinostat; first compound 0.02 µM) | relative viability (Tosedostat + Vorinostat; first compound 0.06325 µM) | relative viability (Tosedostat + Vorinostat; first compound 0.2 µM) | relative viability (Tosedostat + Vorinostat; first compound 0.6325 µM) | relative viability (Tosedostat + Vorinostat; first compound 2 µM) | relative viability (Tosedostat + AZD7762; first compound 0.02 µM) | relative viability (Tosedostat + AZD7762; first compound 0.06325 µM) | relative viability (Tosedostat + AZD7762; first compound 0.2 µM) | relative viability (Tosedostat + AZD7762; first compound 0.6325 µM) | relative viability (Tosedostat + AZD7762; first compound 2 µM)
NCI-H1975 | 0.741 | 0.742 | 0.678 | 0.611 | 0.622 | 0.768 | 0.776 | 0.7 | 0.654 | 0.608
NCI-H1993 | 0.732 | 0.728 | 0.588 | 0.608 | 0.548 | 0.678 | 0.64 | 0.741 | 0.556 | 0.493
NCI-H2009 | 0.808 | 0.659 | 0.736 | 0.633 | 0.645 |  |  |  |  | 
NCI-H2023 | 0.641 | 0.547 | 0.62 | 0.358 | 0.501 |  |  |  |  | 
NCI-H2085 |  | 0.831 | 0.748 | 0.897 | 0.74 |  | 1.03 | 1.05 | 0.973 | 0.965
NCI-H2087 | 0.718 | 0.667 | 0.66 | 0.735 | 0.667 | 1.52 | 1.31 | 1.22 | 1.2 | 1.24
NCI-H2126 | 0.635 | 0.822 | 0.81 | 0.701 | 0.79 | 0.99 | 1.03 | 0.919 | 0.974 | 0.953
NCI-H2170 | 0.923 | 0.786 | 0.963 | 0.724 | 0.777 | 0.85 | 0.94 | 0.948 | 0.976 | 0.892
NCI-H2228 | 0.615 | 0.348 | 0.548 | 0.25 | 0.236 |  |  |  |  | 
NCI-H2342 | 0.851 | 0.79 | 0.75 | 0.702 | 0.843 | 0.512 | 0.599 | 0.446 | 0.41 | 0.432
NCI-H2347 | 0.496 | 0.451 | 0.681 | 0.498 | 0.575 | 0.631 | 0.821 | 0.863 | 0.745 | 0.682
NCI-H2405 | 1.06 | 1.12 | 0.955 | 0.841 | 0.798 | 0.817 | 0.744 | 0.718 | 0.652 | 0.715
NCI-H3122 | 1.02 | 1.06 | 1.46 | 0.879 | 0.954 | 1.1 | 0.919 | 0.894 | 0.875 | 1.14
PC-3 [JPC-3] | 0.861 | 0.949 | 0.656 | 0.606 | 0.561 | 0.752 | 0.747 | 0.746 | 0.647 | 0.54
PC-14 | 0.819 | 0.653 | 0.712 | 0.58 | 0.458 | 0.434 | 0.352 | 0.314 | 0.273 | 0.0971
SK-LU-1 | 0.897 | 0.721 | 0.717 | 0.677 | 0.717 |  |  |  |  | 
SK-MES-1 | 1.13 | 1.03 | 0.963 | 1.1 | 1 |  |  |  |  | 
SW 1573 | 0.984 | 0.718 | 0.81 | 0.671 | 0.614 |  |  |  |  | 
UMC-11 | 0.459 | 0.459 | 0.372 | 0.388 | 0.391 |  |  |  |  | 
